Drawing on ChEMBL document CHEMBL5113419, this text covers Ki, Ratio Ki and Activity for 21 molecules.

pKi: −log10 of the molar value. Active and inactive are the calls of the source. The calls are words filed in the database; no cut-off is given here.

For data set [1], the target named is Prothrombin (Bos taurus, UniProt P00735). Nature of the data set: Binding affinity to bovine thrombin assessed as inhibition constant using tosyl-Gly-Pro-Arg-AMC as substrate.
Data set [2] has as its target Coagulation factor X (Homo sapiens, UniProt P00742). In words: Binding affinity to FXa (unknown origin) using Mes-DArg-Pro-Arg-AMC as substrate.
The target of data set [3] is T1, Suppressor of tumorigenicity 14 protein (Homo sapiens, UniProt Q9Y5Y6).
T1 sequence (Q9Y5Y6 whole entry): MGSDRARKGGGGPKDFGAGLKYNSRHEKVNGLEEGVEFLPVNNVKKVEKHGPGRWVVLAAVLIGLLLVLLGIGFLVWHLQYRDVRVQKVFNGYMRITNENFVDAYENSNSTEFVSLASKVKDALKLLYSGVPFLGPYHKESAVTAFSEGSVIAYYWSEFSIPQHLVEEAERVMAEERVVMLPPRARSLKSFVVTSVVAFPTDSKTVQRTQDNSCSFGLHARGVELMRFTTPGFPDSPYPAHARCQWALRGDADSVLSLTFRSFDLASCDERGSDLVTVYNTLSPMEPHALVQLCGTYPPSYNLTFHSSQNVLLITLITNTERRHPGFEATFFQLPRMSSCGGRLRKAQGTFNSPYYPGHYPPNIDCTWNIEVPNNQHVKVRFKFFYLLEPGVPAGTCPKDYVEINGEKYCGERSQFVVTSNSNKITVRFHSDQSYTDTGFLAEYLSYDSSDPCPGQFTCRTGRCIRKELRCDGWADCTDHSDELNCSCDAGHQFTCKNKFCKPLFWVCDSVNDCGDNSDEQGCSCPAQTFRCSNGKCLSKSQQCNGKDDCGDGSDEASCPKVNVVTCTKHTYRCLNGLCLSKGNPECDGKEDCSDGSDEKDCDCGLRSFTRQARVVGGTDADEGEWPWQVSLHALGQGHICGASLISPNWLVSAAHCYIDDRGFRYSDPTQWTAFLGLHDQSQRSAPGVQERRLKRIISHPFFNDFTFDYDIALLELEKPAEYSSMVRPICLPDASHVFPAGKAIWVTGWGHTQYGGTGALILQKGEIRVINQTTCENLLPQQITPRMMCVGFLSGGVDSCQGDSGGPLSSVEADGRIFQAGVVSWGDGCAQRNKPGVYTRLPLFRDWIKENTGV
In words: Binding affinity to N-terminal MRGS(His)6GSDDDDK-tagged Matriptase (unknown origin) expressed in Escherichia coli assessed as inhibition constant using Mes-DArg-Pro-Arg-AMC as substrate.

The species named for data set [4] is Homo sapiens. Nature of the data set: Selectivity ratio of Ki for binding affinity to FXa (unknown origin) using Mes-DArg-Pro-Arg-AMC as substrate to Ki for binding affinity to N-terminal MRGS(His)6GSDDDDK-tagged Matriptase (unknown origin ) expressed in Escherichia coli assessed as inhibition constant using Mes-DArg-Pro-Arg-AMC as substrate.
The nature of data set [5]: Selectivity ratio of Ki for binding affinity to bovine thrombin assessed as inhibition constant using tosyl-Gly-Pro-Arg-AMC as substrate to Ki for binding affinity to N-terminal MRGS(His)6GSDDDDK-tagged Matriptase (unknown origin) expressed in Escherichia coli assessed as inhibition constant using Mes-DArg-Pro-Arg-AMC as substrate. Conditions: Homo sapiens.
For data set [6], the system named is Influenza A virus. In words: Antiviral activity against Influenza A virus H9N2 infected in MDCK-II cells assessed as reduction in viral titer in supernatants at 5 to 50 uM measured after 24 hrs by plaque assay. The class given is functional, organism-based. The note with it: dose 5-50 µM.
In data set [7] the test system is MDCK-II. In words: Cytotoxicity against MDCK-II cells assessed as reduction in cell viability at 50 uM measured for 24 hrs by Celltiter-glo luminescent assay. It is filed as toxicity, cell-based, Canis lupus familiaris. The note with it: dog.
For data set [8], the system named is Influenza A virus. In words: Antiviral activity against Influenza A virus H9N2 infected in MDCK-II cells assessed as reduction in comet-shaped foci at 20 uM measured after 24 hrs by immunostaining based assay. The class given is functional, organism-based.
Data set [9] relates to Influenza A virus. In words: Antiviral activity against Influenza A virus H9N2 infected in MDCK-II cells assessed as reduction in comet-shaped foci at 50 uM measured after 24 hrs by immunostaining based assay. The class given is functional, organism-based.
Data set [10] deals with Influenza A virus. In words: Antiviral activity against Influenza A virus H9N2 infected in MDCK-II cells assessed as inhibition of viral replication measured after 24 hrs by immunostaining based assay. It is filed as functional, organism-based. The note with it: DDE = dose-dependent effect.

Sequence of Coagulation factor X (P00742 41-179 limits assumed): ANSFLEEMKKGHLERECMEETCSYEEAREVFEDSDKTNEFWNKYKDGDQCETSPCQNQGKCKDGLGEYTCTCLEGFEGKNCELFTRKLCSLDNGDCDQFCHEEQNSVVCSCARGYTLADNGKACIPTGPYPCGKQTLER
Sequence of Coagulation factor X (P00742 235-488 limits assumed): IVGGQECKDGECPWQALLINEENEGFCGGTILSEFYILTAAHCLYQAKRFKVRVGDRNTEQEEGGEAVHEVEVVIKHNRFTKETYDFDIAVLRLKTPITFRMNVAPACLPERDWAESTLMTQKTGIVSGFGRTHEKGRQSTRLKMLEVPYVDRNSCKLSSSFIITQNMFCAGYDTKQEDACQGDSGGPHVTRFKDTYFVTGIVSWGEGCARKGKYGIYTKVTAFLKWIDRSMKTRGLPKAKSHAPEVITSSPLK

For orientation: pKi means −log10 of the Ki, conventionally taken in molar units. Take `COc1ccc(-c2cccc(S(=O)(=O)N[C@@H](Cc3cccc(C(=N)N)c3)C(=O)N3CCN(C(=O)OC(C)(C)C)CC3)c2)c(OC)c1`: the figures for the pKi in [1], in [2] and in data set [3] were 7.92, 7.28 and 7.77, respectively. Also, the Ratio Ki was 3.1 in data set [4] and 0.7 in data set [5].
On to `CC(C)(C)NC(=O)NC1CCN(C(=O)[C@H](Cc2cccc(C(=N)N)c2)NS(=O)(=O)c2cccc(-c3ccc(C(=N)N)cc3)c2)CC1`, for which the negative-log Ki (pKi) in data set [1] was 6.35; in data set [2] it was 7.08; in [3], 9.10. Moreover, the Ratio Ki turned out to be 105 in data set [4] and 561 in data set [5].
In the case of `COc1ccc(-c2cccc(S(=O)(=O)N[C@@H](Cc3cccc(C(=N)N)c3)C(=O)N3CCC(NC(=O)NC(C)C)CC3)c2)c(OC)c1`, the results for the pKi in data set [1], in data set [2] and in [3] were 6.64, 8.52 and 8.10, respectively. Moreover, the Ratio Ki in [4] turned out to be 0.4; in [5], 29.
For the molecule `CC(C)(C)NC(=O)NC1CCN(C(=O)[C@H](Cc2cccc(C(=N)N)c2)NS(=O)(=O)c2cccc(-c3ccc(Cl)cc3Cl)c2)CC1`, the pKi was 6.76 in [1], 8.40 in data set [2] and 8.30 in [3]. Besides, the Ratio Ki worked out at 0.8 in data set [4] and 35 in [5].
With `Cc1ccc(-c2cccc(S(=O)(=O)N[C@@H](Cc3cccc(C(=N)N)c3)C(=O)N3CCC(NC(=O)NC(C)(C)C)CC3)c2)cc1`, the pKi in data set [1] is 6.39; in data set [2], 7.55; in [3], 8.15. The Ratio Ki in [4] is 4; in data set [5], 59.
For `COc1ccc(-c2cccc(S(=O)(=O)N[C@@H](Cc3cccc(C(=N)N)c3)C(=O)N3CCN(C(=O)C4CCCCC4)CC3)c2)c(OC)c1` the same measures were 6.38, 7.02, 7.37, 2.2 and 10.
As for `CC(C)(C)NC(=O)NC1CCN(C(=O)[C@H](Cc2cccc(C(=N)N)c2)NS(=O)(=O)c2cccc(-c3ccc(F)c(CO)c3)c2)CC1`, the pKi is 5.97 in data set [1], 7.29 in [2] and 7.30 in data set [3]. The Ratio Ki in data set [4] stood at 1; in data set [5], 21.
As for `COc1ccc(-c2cccc(S(=O)(=O)N[C@@H](Cc3cccc(C(=N)N)c3)C(=O)N3CCN(C(=O)NC4CCCCC4)CC3)c2)c(OC)c1`, the pKi in data set [1] was 6.04; in data set [2], 8.00; in data set [3], 7.42. The result in [6], in data set [8] and in [9] was Active. In addition, the Activity result was “Toxic” in data set [7] and “Dde” in data set [10]. Moreover, the Ratio Ki in [4] is 0.3; in data set [5], 24.
For `CC(C)(C)NC(=O)NC1CCN(C(=O)[C@H](Cc2cccc(C(=N)N)c2)NS(=O)(=O)c2cccc(-c3cccc(CO)c3)c2)CC1`, the pKi in data set [1] was 6.31; in data set [2], 7.48; in [3], 7.23. The Ratio Ki in [4] came to 0.6; in data set [5], 8.3.
For `CC(C)(C)NC(=O)NC1CCN(C(=O)[C@H](Cc2cccc(C(=N)N)c2)NS(=O)(=O)c2cccc(-c3ccc(CO)cc3)c2)CC1`, the pKi in data set [1] is 4.92; in data set [2], 7.22; in data set [3], 7.96. Also, the results for the Ratio Ki in data set [4] and in [5] were 5.5 and 1090, respectively.
Regarding `CC(C)(C)NC(=O)NC1CCN(C(=O)[C@H](Cc2cccc(C(=N)N)c2)NS(=O)(=O)c2cccc(-c3ccc(CN)cc3)c2)CC1`, the pKi in data set [1] was 6.26; in data set [2] it was 8.00; in data set [3], 8.40. The Ratio Ki amounted to 2.5 in [4] and 138 in data set [5].
With `CC(C)(C)NC(=O)NC1CCN(C(=O)[C@H](Cc2cccc(C(=N)N)c2)NS(=O)(=O)c2cccc(-c3ccc(N)nc3)c2)CC1`, the pKi in [1] was 5.37; in data set [2] it was 8.40; in data set [3], 8.52. The Ratio Ki in data set [5] was determined as 1420.
For `CNC(=O)NC1CCN(C(=O)[C@H](Cc2cccc(C(=N)N)c2)NS(=O)(=O)c2cccc(-c3ccc(OC)cc3OC)c2)CC1`, the pKi in data set [1] was 7.05; in [2] it was 7.64; in [3] it was 7.59. The values for the Ratio Ki in data set [4] and in [5] were 0.9 and 3.4, respectively.
Take `COCc1ccc(-c2cccc(S(=O)(=O)N[C@@H](Cc3cccc(C(=N)N)c3)C(=O)N3CCC(NC(=O)NC(C)(C)C)CC3)c2)cc1`: the results for the pKi in data set [1], in [2] and in data set [3] were 5.75, 6.75 and 8.05, respectively. Moreover, the Ratio Ki is 20 in data set [4] and 199 in [5].
As for `CC(C)(C)NC(=O)NC1CCN(C(=O)[C@H](Cc2cccc(C(=N)N)c2)NS(=O)(=O)c2cccc(-c3cc(F)c(CO)c(F)c3)c2)CC1`, the figures for the pKi in [1], in [2] and in data set [3] were 4.93, 6.30 and 7.62, respectively. For the same molecule, the Ratio Ki in [4] was found to be 21; in data set [5], 492.
Consider `CC(C)(C)NC(=O)NC1CCN(C(=O)[C@H](Cc2cccc(C(=N)N)c2)NS(=O)(=O)c2cccc(-c3cccc(CN)c3)c2)CC1`, for which the pKi is 5.88 in data set [1], 10.00 in data set [2] and 9.00 in data set [3]. The Ratio Ki stood at 0.1 in data set [4] and 1320 in [5].
For `CC(C)(C)NC(=O)NC1CCN(C(=O)[C@H](Cc2cccc(C(=N)N)c2)NS(=O)(=O)c2cccc(-c3ccc(COC(C)(C)C)cc3)c2)CC1` the same measures were 5.60, 6.28, 6.77, 3.1 and 15.
For `COc1ccc(-c2cccc(S(=O)(=O)N[C@@H](Cc3cccc(C(=N)N)c3)C(=O)N3CCN(C(=O)C(C)(C)C)CC3)c2)c(OC)c1` the same measures were 7.38, 6.94, 6.84, 0.8 and 0.3.
With `COc1ccc(-c2cccc(S(=O)(=O)N[C@@H](Cc3cccc(C(=N)N)c3)C(=O)N3CCN(C(=O)NC(C)(C)C)CC3)c2)c(OC)c1`, the pKi was 7.14 in data set [1], 7.89 in data set [2] and 6.98 in data set [3]. In addition, the values for the Ratio Ki in [4] and in data set [5] were 0.1 and 0.7, respectively.
As to `CC(C)Oc1ccc(-c2cccc(S(=O)(=O)N[C@@H](Cc3cccc(C(=N)N)c3)C(=O)N3CCC(NC(=O)NC(C)(C)C)CC3)c2)cc1`, the pKi is 5.29 in data set [1], 6.36 in data set [2] and 7.24 in [3]. The Ratio Ki in data set [4] amounted to 9.3; in data set [5], 89.
Take `COc1ccc(-c2cccc(S(=O)(=O)N[C@@H](Cc3cccc(C(=N)N)c3)C(=O)N3CCC(NC(=O)NC(C)(C)C)CC3)c2)c(OC)c1`: the pKi is 5.74 in [1], 8.70 in [2] and 8.52 in data set [3]. For the same molecule, the result in data set [6], in [8] and in data set [9] was Active. Besides, the Activity result in data set [7] was “Toxic”; in data set [10], “Dde”. The Ratio Ki came out at 0.7 in [4] and 600 in [5].
